Experimental data reported in patent EP2140864A2 (H. Lundbeck A/S, priority 2001, dated 2002).
pKi: −log10 of the molar value.

Assays:
[1] = molecular target: T1, Human 5HT2A Receptor (Homo sapiens, UniProt P28223); test: Radioligand binding, 5HT2A receptor ([3H]ketanserin); conditions: for pKi: Table 7, read-out: h5HT2A Ki; for selectivity ratio h5HT2A: Table 8, Ki h5HT2A divided by Ki hGAL3
T1 construct: expressed in transfected cells; host or cells: COS-7 cells (pCEXV-3 vector, DEAE-dextran)
T1 sequence (P28223 whole entry): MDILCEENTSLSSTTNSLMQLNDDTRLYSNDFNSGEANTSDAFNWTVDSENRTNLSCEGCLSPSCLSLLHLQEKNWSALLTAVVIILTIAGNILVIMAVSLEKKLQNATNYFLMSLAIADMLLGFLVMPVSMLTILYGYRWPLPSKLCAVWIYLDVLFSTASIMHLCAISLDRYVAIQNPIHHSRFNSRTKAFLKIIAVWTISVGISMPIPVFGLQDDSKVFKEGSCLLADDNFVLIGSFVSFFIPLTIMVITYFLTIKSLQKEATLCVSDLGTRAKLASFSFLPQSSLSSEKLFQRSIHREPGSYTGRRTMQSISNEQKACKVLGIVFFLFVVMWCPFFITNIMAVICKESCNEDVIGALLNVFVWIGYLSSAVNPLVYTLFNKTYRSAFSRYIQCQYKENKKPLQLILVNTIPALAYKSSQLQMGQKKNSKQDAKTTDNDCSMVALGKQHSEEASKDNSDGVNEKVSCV
Protocol: Human 5HT2A Receptor: The coding sequence of the human 5HT2A receptor was obtained from a human brain cortex cDNA library, and cloned into the cloning site of pCEXV-3 eukaryotic expression vector. This construct was transfected into COS-7 cells by the DEAE-dextran method (Cullen, 1987). Cells were harvested after 72 hours and lysed by sonication in 5 mM Tris-HCl, 5 mM EDTA, pH 7.5. The cell lysates were subjected to centrifugation at 1000 rpm for 5 minutes at 4°C, and the supernatant was subjected to centrifugation at 30,000 x g for 20 minutes at 4°C. The pellet was suspended in 50 mM Tris-HCl buffer (pH 7.7 at room temperature) containing 10 mM MgS04, 0.5 mM EDTA, and 0.1% ascorbate. The affinity of compounds at 5HT2A receptors were determined in equilibrium competition binding assays using [^3H]ketanserin (1 nM). Nonspecific binding was defined by the addition of 10 µM mianserin. The bound radioligand was separated by filtration through GF/B filters using a cell harvester.
(§1) Binding data were analyzed using nonlinear regression and statistical techniques available in the GraphPAD Prism package (San Diego, CA). Enzymatic assay data were derived from a standard curve of reference compound data.

[2] = molecular target: T2, human 5HT1F (Homo sapiens, UniProt P30939); test: Radioligand binding, 5HT1F receptor ([3H]-serotonin); conditions: for pKi: Table 7, read-out: h5HT1F Ki; for selectivity ratio h5HT1F: Table 8, Ki h5HT1F divided by Ki hGAL3
T2 construct: expressed in transfected cells
T2 sequence (P30939 1-366): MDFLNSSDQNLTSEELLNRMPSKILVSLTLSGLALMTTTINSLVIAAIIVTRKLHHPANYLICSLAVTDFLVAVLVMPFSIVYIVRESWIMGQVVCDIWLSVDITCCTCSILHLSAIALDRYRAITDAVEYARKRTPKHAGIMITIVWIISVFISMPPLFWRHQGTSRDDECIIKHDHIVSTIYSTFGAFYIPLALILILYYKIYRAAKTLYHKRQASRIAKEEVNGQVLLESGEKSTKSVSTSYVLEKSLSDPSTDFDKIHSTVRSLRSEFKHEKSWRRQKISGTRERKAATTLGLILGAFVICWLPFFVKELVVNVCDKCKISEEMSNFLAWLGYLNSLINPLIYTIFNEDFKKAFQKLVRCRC
Protocol: (§2) Human 5HT1B, 5HT1D, 5HT1E, 5HT1F, and 5HT7 Receptors: The cell lysates of LM(tk-) clonal cell line stably transfected with the genes encoding each of these 5HT receptor-subtypes were prepared as described above. Cell membranes were suspended in 50mM Tris-HCl buffer (pH 7.4 at 37°C) containing 10 mM MgCl2, 0.2 mM EDTA, 10 µM pargyline, and 0.1% ascorbate. […] Nonspecific binding was determined in the presence of 10 µM serotonin. The bound radioligand was separated by filtration through GF/B filters using a cell harvester.
as §1

[3] = molecular target: T3, human α1B adrenoceptor (Homo sapiens, UniProt P35368); test: Radioligand binding, α1B adrenergic receptor; conditions: for pKi: Table 9, read-out: hα1B Ki; for selectivity ratio hα1B: Table 10, Ki hα1B divided by Ki hGAL3
T3 construct: expressed in transfected cells
T3 sequence (P35368 1-520): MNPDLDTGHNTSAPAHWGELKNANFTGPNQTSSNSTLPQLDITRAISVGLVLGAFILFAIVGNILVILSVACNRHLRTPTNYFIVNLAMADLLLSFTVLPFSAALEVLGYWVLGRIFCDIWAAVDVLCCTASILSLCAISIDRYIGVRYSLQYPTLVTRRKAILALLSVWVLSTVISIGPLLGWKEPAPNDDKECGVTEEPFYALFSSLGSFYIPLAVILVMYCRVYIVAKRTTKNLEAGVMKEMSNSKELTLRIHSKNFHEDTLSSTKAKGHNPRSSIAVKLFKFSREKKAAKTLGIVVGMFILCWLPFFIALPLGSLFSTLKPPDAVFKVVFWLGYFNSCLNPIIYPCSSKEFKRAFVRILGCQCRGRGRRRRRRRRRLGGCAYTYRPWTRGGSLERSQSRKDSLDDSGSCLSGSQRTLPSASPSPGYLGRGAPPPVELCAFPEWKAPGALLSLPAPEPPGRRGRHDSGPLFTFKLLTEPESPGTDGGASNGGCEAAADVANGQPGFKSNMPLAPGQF

[4] = molecular target: T4, human 5HT1D (Homo sapiens, UniProt P28221); test: Radioligand binding, 5HT1D receptor ([3H]-serotonin); conditions: for pKi: Table 7, read-out: h5HT1D Ki; for selectivity ratio h5HT1D: Table 8, Ki h5HT1D divided by Ki hGAL3
T4 construct: expressed in transfected cells
T4 sequence (P28221 whole entry): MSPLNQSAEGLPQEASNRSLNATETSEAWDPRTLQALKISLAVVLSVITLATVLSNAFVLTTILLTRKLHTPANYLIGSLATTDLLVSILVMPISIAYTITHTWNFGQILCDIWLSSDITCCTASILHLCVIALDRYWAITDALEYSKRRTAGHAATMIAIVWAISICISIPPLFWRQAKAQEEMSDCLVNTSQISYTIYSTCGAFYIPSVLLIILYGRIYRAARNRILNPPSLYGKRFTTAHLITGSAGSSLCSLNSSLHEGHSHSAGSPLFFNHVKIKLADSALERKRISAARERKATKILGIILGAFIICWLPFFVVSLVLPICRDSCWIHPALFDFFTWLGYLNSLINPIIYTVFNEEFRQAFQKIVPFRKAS
Protocol: as §2, §1

[5] = molecular target: T5, human α1A adrenoceptor (Homo sapiens, UniProt P35348); test: Radioligand binding, α1A adrenergic receptor; conditions: for pKi: Table 9, read-out: hα1A Ki; for selectivity ratio hα1A: Table 10, Ki hα1A divided by Ki hGAL3
T5 construct: expressed in transfected cells
T5 sequence (P35348 1-466): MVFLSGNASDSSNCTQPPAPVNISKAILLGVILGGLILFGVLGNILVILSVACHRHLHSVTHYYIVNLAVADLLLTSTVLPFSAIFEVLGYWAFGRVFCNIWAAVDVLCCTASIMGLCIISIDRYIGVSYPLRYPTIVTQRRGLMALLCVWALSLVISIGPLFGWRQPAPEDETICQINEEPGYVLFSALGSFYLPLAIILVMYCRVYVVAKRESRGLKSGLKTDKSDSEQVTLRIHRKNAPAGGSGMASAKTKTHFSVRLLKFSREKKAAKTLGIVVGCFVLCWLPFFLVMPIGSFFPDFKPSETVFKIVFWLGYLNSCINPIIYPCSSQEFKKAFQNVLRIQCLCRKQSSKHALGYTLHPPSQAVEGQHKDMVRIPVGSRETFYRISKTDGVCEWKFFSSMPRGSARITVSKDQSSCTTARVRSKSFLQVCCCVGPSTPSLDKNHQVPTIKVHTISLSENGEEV
Source text: (§3) Other receptors: Cell membranes expressing human dopamine D1, D2, D4 and rat D3 receptors were purchased through BioSignal, Inc. (Montreal, Canada). Binding assays using the histamine H1 receptor; dopamine receptors; and α1A, α1E, and α2 adrenergic receptors may be carried out according to the procedures described in U.S. Patent No. 5,780,485, the disclosure of which is hereby incorporated by reference in its entirety into this application. Binding assays using the dopamine D5 receptor may be carried out according to the procedures described in U.S. Patent No. 5,882,855, the disclosure of which is hereby incorporated by reference in its entirety into this application. Binding assays for the human α1D adrenergic receptor may be carried out according to the procedures described in U.S. Patent No. 6,156,518, the disclosure of which is hereby incorporated by reference in its entirety into this application.
as §1

[6] = molecular target: T6, rat D3 receptors (Rattus norvegicus, UniProt P19020); test: Radioligand binding, dopamine D3 receptor; conditions: for pKi: Table 9, read-out: rD3 Ki; for selectivity ratio rD3: Table 10, Ki rD3 divided by Ki hGAL3
T6 construct: purchased BioSignal, Inc. (Montreal, Canada)
T6 sequence (P19020 whole entry): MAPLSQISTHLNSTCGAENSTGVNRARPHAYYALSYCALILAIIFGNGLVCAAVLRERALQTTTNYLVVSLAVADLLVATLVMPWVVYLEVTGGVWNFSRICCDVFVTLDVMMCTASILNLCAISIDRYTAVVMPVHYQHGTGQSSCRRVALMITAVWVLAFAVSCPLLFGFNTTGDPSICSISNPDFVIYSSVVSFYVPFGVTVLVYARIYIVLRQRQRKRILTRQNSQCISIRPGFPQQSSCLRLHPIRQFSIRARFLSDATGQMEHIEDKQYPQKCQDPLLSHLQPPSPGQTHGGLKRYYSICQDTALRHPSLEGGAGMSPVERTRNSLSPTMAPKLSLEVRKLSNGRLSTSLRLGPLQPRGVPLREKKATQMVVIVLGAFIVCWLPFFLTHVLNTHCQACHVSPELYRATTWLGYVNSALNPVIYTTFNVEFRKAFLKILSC
Source text: as §3, §1

SMILES	pKi [1]	selectivity ratio h5HT2A [1]	pKi [2]	selectivity ratio h5HT1F [2]	pKi [3]	selectivity ratio hα1B [3]	pKi [4]	selectivity ratio h5HT1D [4]	pKi [5]	selectivity ratio hα1A [5]	pKi [6]	selectivity ratio rD3 [6]
O=C1C(=Nc2ccc(Cl)cc2)c2ccccc2N1c1ccccc1 [Example 97, 3-[(4-CHLOROPHENYL)IMINO]-1-PHENYL-1,3-DIHYDRO-2H-INDOL-2-ONE]	< 4.30	>100	5.38	>30	4.34	>100	4.85	>100	4.77	>100	5.01	>100
O=C1C(=Nc2ccc(Br)cc2)c2ccccc2N1c1ccccc1 [Example 98, 3-[(4-BROMOPHENYL)IMINO]-1-PHENYL-1,3-DIHYDRO-2H-INDOL-2-ONE]	< 4.30	>100	5.47	>30	4.50	>100	5.04	>100	4.84	>100	6.23	16
